These results are taken from patent US9738630B2, “Inhibitors of lysine methyl transferase” (BRISTOL-MYERS SQUIBB COMPANY, priority 2013, dated 2017).

recombinant EZH2-641F complex (EZH2 Y641F/EED/SUZ12/RbAp48/AEBP2), sequence (Q15910 whole entry Y641F): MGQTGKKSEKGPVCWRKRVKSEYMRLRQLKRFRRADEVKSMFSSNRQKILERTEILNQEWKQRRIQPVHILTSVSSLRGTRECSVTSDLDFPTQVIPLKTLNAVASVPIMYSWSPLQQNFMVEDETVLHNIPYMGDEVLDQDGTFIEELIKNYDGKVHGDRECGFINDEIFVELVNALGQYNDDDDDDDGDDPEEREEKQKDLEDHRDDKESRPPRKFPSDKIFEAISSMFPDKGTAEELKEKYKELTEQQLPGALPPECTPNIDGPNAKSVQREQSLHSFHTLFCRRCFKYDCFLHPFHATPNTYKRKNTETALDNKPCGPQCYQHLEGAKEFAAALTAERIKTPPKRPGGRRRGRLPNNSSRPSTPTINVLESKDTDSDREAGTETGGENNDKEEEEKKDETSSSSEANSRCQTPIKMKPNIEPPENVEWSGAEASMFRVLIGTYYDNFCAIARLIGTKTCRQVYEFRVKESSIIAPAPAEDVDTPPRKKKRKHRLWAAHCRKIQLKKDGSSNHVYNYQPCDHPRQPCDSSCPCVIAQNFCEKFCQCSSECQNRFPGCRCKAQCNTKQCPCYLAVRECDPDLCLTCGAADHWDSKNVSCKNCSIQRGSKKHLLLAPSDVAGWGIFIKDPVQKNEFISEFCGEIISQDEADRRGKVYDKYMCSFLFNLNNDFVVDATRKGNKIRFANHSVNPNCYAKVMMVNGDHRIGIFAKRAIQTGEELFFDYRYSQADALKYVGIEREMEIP
recombinant EZH2-641F complex (EZH2 Y641F/EED/SUZ12/RbAp48/AEBP2), sequence (O75530 whole entry partner): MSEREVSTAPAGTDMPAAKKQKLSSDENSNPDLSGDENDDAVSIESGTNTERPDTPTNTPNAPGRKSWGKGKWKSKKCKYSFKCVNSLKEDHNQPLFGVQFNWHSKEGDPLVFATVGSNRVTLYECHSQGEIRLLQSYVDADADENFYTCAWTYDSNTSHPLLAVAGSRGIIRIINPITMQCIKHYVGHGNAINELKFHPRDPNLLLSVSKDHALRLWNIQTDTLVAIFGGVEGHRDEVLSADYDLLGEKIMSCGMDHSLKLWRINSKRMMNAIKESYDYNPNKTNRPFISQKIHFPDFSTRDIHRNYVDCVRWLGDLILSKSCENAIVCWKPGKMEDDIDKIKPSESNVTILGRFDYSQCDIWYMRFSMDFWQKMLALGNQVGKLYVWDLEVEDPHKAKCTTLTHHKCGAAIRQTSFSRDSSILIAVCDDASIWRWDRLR
recombinant EZH2-641F complex (EZH2 Y641F/EED/SUZ12/RbAp48/AEBP2), sequence (Q15022 whole entry partner): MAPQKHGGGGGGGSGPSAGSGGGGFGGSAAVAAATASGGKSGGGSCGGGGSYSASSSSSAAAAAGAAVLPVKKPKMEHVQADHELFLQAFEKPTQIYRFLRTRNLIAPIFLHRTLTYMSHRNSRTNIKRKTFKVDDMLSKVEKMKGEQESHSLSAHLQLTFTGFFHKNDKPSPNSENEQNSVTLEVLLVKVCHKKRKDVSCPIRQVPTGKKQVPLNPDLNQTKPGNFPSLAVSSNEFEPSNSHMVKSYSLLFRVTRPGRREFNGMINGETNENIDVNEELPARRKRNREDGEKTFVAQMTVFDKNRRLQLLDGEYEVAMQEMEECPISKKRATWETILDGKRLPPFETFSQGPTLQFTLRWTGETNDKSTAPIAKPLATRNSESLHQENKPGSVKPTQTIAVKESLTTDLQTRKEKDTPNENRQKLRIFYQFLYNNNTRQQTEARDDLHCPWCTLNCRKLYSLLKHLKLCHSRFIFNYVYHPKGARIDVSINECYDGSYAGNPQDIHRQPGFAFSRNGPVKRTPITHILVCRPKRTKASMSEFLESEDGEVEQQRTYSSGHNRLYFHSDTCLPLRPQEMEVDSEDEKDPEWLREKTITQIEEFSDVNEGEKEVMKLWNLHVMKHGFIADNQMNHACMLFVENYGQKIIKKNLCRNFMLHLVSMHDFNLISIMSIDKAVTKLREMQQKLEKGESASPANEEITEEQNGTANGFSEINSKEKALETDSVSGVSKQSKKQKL
recombinant EZH2-641F complex (EZH2 Y641F/EED/SUZ12/RbAp48/AEBP2), sequence (Q09028 whole entry partner): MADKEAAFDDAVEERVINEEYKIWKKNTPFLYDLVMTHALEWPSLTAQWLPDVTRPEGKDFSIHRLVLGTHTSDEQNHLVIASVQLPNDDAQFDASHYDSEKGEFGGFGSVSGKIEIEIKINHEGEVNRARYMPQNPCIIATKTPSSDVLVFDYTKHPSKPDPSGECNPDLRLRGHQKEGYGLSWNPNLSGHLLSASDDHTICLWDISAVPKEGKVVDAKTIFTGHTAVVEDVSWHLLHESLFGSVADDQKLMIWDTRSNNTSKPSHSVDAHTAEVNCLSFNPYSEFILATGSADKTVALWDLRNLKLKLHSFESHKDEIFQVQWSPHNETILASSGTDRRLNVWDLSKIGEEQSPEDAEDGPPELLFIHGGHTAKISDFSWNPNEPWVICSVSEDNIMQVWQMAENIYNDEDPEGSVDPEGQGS
recombinant EZH2-641F complex (EZH2 Y641F/EED/SUZ12/RbAp48/AEBP2), sequence (Q6ZN18 whole entry partner): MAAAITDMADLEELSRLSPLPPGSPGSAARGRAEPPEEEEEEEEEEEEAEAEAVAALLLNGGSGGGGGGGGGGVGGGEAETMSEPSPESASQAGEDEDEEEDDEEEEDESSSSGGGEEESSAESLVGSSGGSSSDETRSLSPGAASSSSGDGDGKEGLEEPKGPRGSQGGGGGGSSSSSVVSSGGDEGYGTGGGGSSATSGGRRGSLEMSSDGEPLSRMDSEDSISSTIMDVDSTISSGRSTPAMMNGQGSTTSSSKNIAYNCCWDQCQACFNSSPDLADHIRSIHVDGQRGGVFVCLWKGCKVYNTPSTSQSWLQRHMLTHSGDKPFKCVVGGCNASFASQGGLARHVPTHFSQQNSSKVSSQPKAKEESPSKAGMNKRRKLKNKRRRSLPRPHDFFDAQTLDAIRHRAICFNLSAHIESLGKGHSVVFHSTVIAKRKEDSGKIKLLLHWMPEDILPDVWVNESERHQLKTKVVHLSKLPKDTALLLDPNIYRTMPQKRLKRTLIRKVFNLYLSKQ

The target of the assay is recombinant EZH2-641F complex (EZH2 Y641F/EED/SUZ12/RbAp48/AEBP2) (Homo sapiens (Human), UniProt Q15910, Y641F). The assay is described as follows: EZH2 Histone Methyl Transferase Assay (scintillation proximity assay). The class given is biochemical. As to conditions: 350 nM histone peptide substrate, 500 nM 3H-SAM, 3 hours at room temperature. The text has this:
EZH2 Histone Methyl Transferase Assay
The effectiveness of compounds of the present invention as inhibitors of hitone methyl transferases can be readily tested by assays known to those skilled in the art. For example, in vitro histone methyl transferase assays may be conducted with a relevant purified histone methyl transferase and an appropriate synthetic substrate to determine the inhibitory activity of the compounds. […] Reaction products were captured by binding to strepavidin-conjugated imaging beads. Incorporation of radioactive methyl group into the histone peptide substrate was determined in Leadseeker (GE Healthcare) by means of scintiallation proximity assay. […] Compounds were dissolved at 10 mM in dimethylsulfoxide (DMSO) and evaluated at eleven concentrations. EC50 values were derived by non-linear regression analysis.
A general note: SPA uses beads or plates that emit light when radiolabelled molecules are held near them.
Consider `CCN(c1cc(-c2ccc(CN3CCOCC3)cc2)cc(C(=O)NCC2C(=O)NC(C)c3cccc(F)c32)c1C)C1CCOCC1` (stereo not shown) [Example 5, 5-(Ethyl(tetrahydro-2H-pyran-4-yl)amino)-N-((5-fluoro-1-methyl-3-oxo-1,2,3,4-tetrahydroisoquinolin-4-yl)methyl)-4-methyl-4′-(morpholinomethyl)-[1,1′-biphenyl]-3-carboxamide], for which the EC50 – broadly, the concentration at which the effect is half-maximal – is not above 5 µM. As for `CCC(C)n1cc(C)c2c(C(=O)NCc3c(=O)[nH]c(C)c4ccccc34)cc(-c3ccc(N4CCN(C(=O)OC(C)(C)C)CC4)nc3)cc21` (stereo not shown) [Example 9, tert-Butyl 4-(5-(1-(sec-butyl)-3-methyl-4-(((1-methyl-3-oxo-2,3-dihydroisoquinolin-4-yl)methyl)carbamoyl)-1H-indol-6-yl)pyridin-2-yl)piperazine-1-carboxylate], the figure is not above 5 µM. Under `CCC(C)n1cc(C)c2c(C(=O)NCc3c(=O)[nH]c(C)c4ccccc34)cc(-c3ccc(N4CCNCC4)nc3)cc21` (stereo not shown) [Example 10, 1-(sec-Butyl)-3-methyl-N-((1-methyl-3-oxo-2,3-dihydroisoquinolin-4-yl)methyl)-6-(6-(piperazin-1-yl)pyridin-3-yl)-1H-indole-4-carboxamide] stands not above 0.5 µM; under `Cc1[nH]c(=O)c(CNC(=O)c2cc3c(c(-c4ccc(N5CCNCC5)nc4)c2)OC(C)(C)C3)c2ccccc12` [Example 17, 2,2-Dimethyl-N-((1-methyl-3-oxo-2,3-dihydroisoquinolin-4-yl)methyl)-7-(6-(piperazin-1-yl)pyridin-3-yl)-2,3-dihydrobenzofuran-5-carboxamide], not above 5 µM.
